Measurements reported in patent US20220313656A1, “NEW CLASS OF ANTIBIOTICS HAVING LOW MIC-VALUES TOWARDS DIFFERENT STRAINS OF BACTERIA” (priority 2019, published 2022).
Read-outs that look alike come from different tables or passages of the source.

What was measured:
Assay in all cases: MIC, serial dilution method (CLSI)
E. faecalis = assay type: cell-based, Enterococcus faecalis
Description: (§1) These inoculums were each in diluted 1:100 in Müller Hinton (MH) broth (Sigma, Copenhagen, Denmark). From the diluted inoculums 100 μl was transferred to each well in a 96-well plate and mixed with the compound to be MIC determined. The plate was incubated for 24 hours at 37° C. (without shaking). The MIC value was determined as the lowest concentration in which no bacterial growth could be visually detected. All MIC determinations were done in duplicates. […] Since all derivatives are new, no control strains (with reference MIC values) were available.

Salmonella enteritidis = assay type: cell-based
Description: as §1

Listeria monocytogenes = assay type: cell-based
Description: as §1

Streptococcus equi = assay type: cell-based
Description: as §1

Bacillus cereus = assay type: cell-based
Description: as §1

S. aureus USA300 = assay type: cell-based, Staphylococcus aureus
Description: as §1

S. aureus CC398 = assay type: cell-based, Staphylococcus aureus
Description: as §1

[1] = tested on: Staphylococus pseudintermedius; assay type: cell-based, Staphylococcus pseudintermedius
Description: as §1

E. coli APEC O2 = assay type: cell-based, Escherichia coli
Description: as §1

E. faecium = assay type: cell-based, Enterococcus faecium
Description: as §1

[2] = Enterococcus faecalis, 24 h, read-out: MIC
[3] = Salmonella enterica, ENTERITIDIS, 24 h, read-out: MIC
[4] = Staphylococcus aureus, USA300, 24 h, read-out: MIC
[5] = Staphylococcus aureus, MRSA, 24 h, read-out: MIC
[6] = Staphylococcus pseudintermedius, 24 h, read-out: MIC
[7] = Escherichia coli, APECO2, 24 h, read-out: MIC
[8] = Enterococcus faecium, 24 h, read-out: MIC
[9] = S. aureus USA300, MH broth, 24 hours at 37° C., set to 256 if growth at […]
[10] = E. faecalis, MH broth, 24 hours at 37° C., set to 256 if growth at […]
[11] = Salmonella enteritidis, MH broth, 24 hours at 37° C., set to 256 if growth at […]
[12] = MH broth, 24 hours at 37° C., set to 256 if growth at […]
[13] = S. aureus CC398 (MRSA strain), MH broth, 24 hours at 37° C., set to 256 if growth at […]
[14] = Staphylococus pseudintermedius, MH broth, 24 hours at 37° C., set to 256 if growth at […]
[15] = E. coli APEC O2, MH broth, 24 hours at 37° C., set to 256 if growth at […]
[16] = E. faecium, MH broth, 24 hours at 37° C., set to 256 if growth at […]

Compound	MIC (E. faecalis; [2]) [µg/mL]	MIC (Salmonella enteritidis; [3]) [µg/mL]	MIC (Listeria monocytogenes; 24 h, read-out: MIC) [µg/mL]	MIC (Streptococcus equi; 24 h, read-out: MIC) [µg/mL]	MIC (Bacillus cereus; 24 h, read-out: MIC) [µg/mL]	MIC (S. aureus USA300; [4]) [µg/mL]	MIC (S. aureus CC398; [5]) [µg/mL]	MIC [1, 6] [µg/mL]	MIC (E. coli APEC O2; [7]) [µg/mL]	MIC (E. faecium; [8]) [µg/mL]	MIC (S. aureus USA300; [9])	MIC (E. faecalis; [10]) [µg/mL]	MIC (Salmonella enteritidis; [11]) [µg/mL]	MIC (Listeria monocytogenes; [12]) [µg/mL]	MIC (Streptococcus equi; [12]) [µg/mL]	MIC (Bacillus cereus; [12]) [µg/mL]	MIC (S. aureus CC398; [13]) [µg/mL]	MIC [1, 14] [µg/mL]	MIC (E. coli APEC O2; [15]) [µg/mL]	MIC (E. faecium; [16]) [µg/mL]
CC(CN1c2ccccc2Sc2ccccc21)[N+](C)(C)C.[I-] (stereo not shown) [Compound S13, N,N,N-trimethyl-1-(10H-phenothiazin-10-yl)propan-2-aminium iodide]	256	128	256	32	128	128	128	64	256	128	–	–	–	–	–	–	–	–	–	–
CCCCCCCCCCCCCC[N+](C)(C)C(C)CN1c2ccccc2Sc2ccccc21.[Br-] (stereo not shown) [Compound S44, N-(1-(10H-phenothiazin-10-yl)propan-2-yl)-N,N-dimethyltetradecan-1-aminium bromide]	–	–	–	–	–	–	–	–	–	–	8/16	–	–	–	–	–	–	–	–	–
CCCCCCCCCCCC[N+](C)(C)CC/C=C1/c2ccccc2Sc2ccc(Cl)cc21.[Br-] [Compound S39, (Z)—N-(3-(2-chloro-9H-thioxanthen-9-ylidene)propyl)-N,N-dimethyldodecan-1-aminium bromide]	–	–	–	–	–	4	–	–	–	–	–	–	–	–	–	–	–	–	–	–
C=CC[N+](C)(C)CCC=C1c2ccccc2Sc2ccc(Cl)cc21 [Chlorprothixene 2-Propene-1-yl]	–	–	–	–	–	–	–	–	–	–	16 µg/mL	128	128	32	8	32	16	8	128	64
CCOC(=O)CC[N+]1(C)CCCCC1CCN1c2ccccc2Sc2ccc(SC)cc21 (stereo not shown) [Thioridazine 3-Ethoxy-3-oxo-1-propyl]	–	–	–	–	–	–	–	–	–	–	32 µg/mL	32	128	4	8	4	32	16	256	32
CC(CN1c2ccccc2Sc2ccccc21)[N+](C)(C)Cc1ccccc1 (stereo not shown) [Promethazine Benzyl]	–	–	–	–	–	–	–	–	–	–	16 µg/mL	128	128	32	16	32	16	16	128	64
CC(C)[N+](C)(C)C(C)CN1c2ccccc2Sc2ccccc21.[Br-] (stereo not shown) [Compound S15, N-isopropyl-N,N-dimethyl-1-(10H-phenothiazin-10-yl)propan-2-aminium bromide]	128	128	128	256	128	64	16	32	128	128	–	–	–	–	–	–	–	–	–	–
CC(C)[N+](C)(C)CCCN1c2ccccc2Sc2ccc(Cl)cc21.[Br-] [Compound S4, 3-(2-chloro-10H-phenothiazin-10-yl)-N-isopropyl-N,N-dimethylpropan-1-aminium bromide]	128	128	32	32	32	16	16	8	128	64	–	–	–	–	–	–	–	–	–	–
COC(=O)CCCCC[N+](C)(C)C(C)CN1c2ccccc2Sc2ccccc21 (stereo not shown) [Promethazine 6-Methoxy-6-oxo-1-hexyl]	–	–	–	–	–	–	–	–	–	–	64 µg/mL	256	256	128	32	128	64	32	256	128
C[N+](C)(C)CC/C=C1/c2ccccc2Sc2ccc(Cl)cc21.[I-] [Compound S35, (Z)-3-(2-chloro-9H-thioxanthen-9-ylidene)-N,N,N-trimethylpropan-1-aminium iodide]	256	256	256	256	128	256	256	256	256	256	–	–	–	–	–	–	–	–	–	–
CSc1ccc2c(c1)N(CCC1CCCC[N+]1(C)C(C)C)c1ccccc1S2.[Br-] (stereo not shown) [Compound S26, 1-isopropyl-1-methyl-2-(2-(2-(methylthio)-10H-phenothiazin-10-yl)ethyl)piperidin-1-ium bromide]	32	128	8	8	8	8	8	8	128	16	–	–	–	–	–	–	–	–	–	–
CC[N+](C)(C)CCCN1c2ccccc2Sc2ccc(Cl)cc21.[Br-] [Compound S3, 3-(2-chloro-10H-phenothiazin-10-yl)-N-ethyl-N,N-dimethylpropan-1-aminium bromide]	128	256	32	16	32	16	16	8	256	32	–	–	–	–	–	–	–	–	–	–
CC(C)CC[N+](C)(C)C(C)CN1c2ccccc2Sc2ccccc21.[Br-] (stereo not shown) [Compound S16, N-(1-(10H-phenothiazin-10-yl)propan-2-yl)-N,N,3-trimethylbutan-1-aminium bromide]	64	128	32	8	16	16	16	8	64	64	–	–	–	–	–	–	–	–	–	–
CCCCC[N+](C)(C)CCCN1c2ccccc2Sc2ccc(Cl)cc21.[Br-] [Compound S6, N-(3-(2-chloro-10H-phenothiazin-10-yl)propyl)-N,N-dimethylpentan-1-aminium bromide]	128	256	64	32	64	64	64	32	256	64	–	–	–	–	–	–	–	–	–	–
CSc1ccc2c(c1)N(CCC1CCCC[N+]1(C)C)c1ccccc1S2.[I-] (stereo not shown) [Compound S24, 1,1-dimethyl-2-(2-(2-(methylthio)-10H-phenothiazin-10-yl)ethyl)piperidin-1-ium iodide]	128	128	32	8	16	16	16	8	256	64	–	–	–	–	–	–	–	–	–	–
CC(C)CC[N+](C)(C)CCCN1c2ccccc2Sc2ccc(Cl)cc21.[Br-] [Compound S5, N-(3-(2-chloro-10H-phenothiazin-10-yl)propyl)-N,N,3-trimethylbutan-1-aminium bromide]	32	128	32	8	64	16	16	8	128	32	–	–	–	–	–	–	–	–	–	–
CSc1ccc2c(c1)N(CCC1CCCC[N+]1(C)Cc1ccccc1)c1ccccc1S2 (stereo not shown) [Thioridazine Benzyl]	–	–	–	–	–	–	–	–	–	–	2 µg/mL	8	64	4	2	2	2	2	128	8
C=CC[N+](C)(C)C(C)CN1c2ccccc2Sc2ccccc21.[Br-] (stereo not shown) [Compound S41, N-(1-(10H-phenothiazin-10-yl)propan-2-yl)-N,N-dimethylprop-2-en-1-aminium bromide]	256	256	256	32	256	64	64	64	256	128	–	–	–	–	–	–	–	–	–	–
CC(C)=CCCC(C)CC[N+](C)(C)C(C)CN1c2ccccc2Sc2ccccc21.Cc1ccc(S(=O)(=O)[O-])cc1 (stereo not shown) [Compound S45, N-(1-(10H-phenothiazin-10-yl)propan-2-yl)-N,N,3,7-tetramethyloct-6-en-1-aminium 4-methylbenzenesulfonate]	–	–	–	–	–	4	–	–	–	–	–	–	–	–	–	–	–	–	–	–
